Experimental data: ChEMBL document CHEMBL1157662, “Antimalarial and antileishmanial activities of histone deacetylase inhibitors with triazole-linked cap group” (Bioorg Med Chem, 2010)
Converted amounts (≈) assume the structure as drawn. The source made the active and inactive calls. No cut-off for these calls is given here.

Columns and labels:
[1] = system: Leishmania donovani; experiment: Antileishmanial activity against Leishmania donovani promastigotes after 72 hrs by alamar blue assay; assay type: functional, organism-based
[2] = system: Plasmodium falciparum; experiment: microbe, parasite or virus in culture; assay type: functional, organism-based, W2, Vero; settings: Plasmodium falciparum, W2, Vero, 72 h; read-out: IC50
Description: Antimalarial activity against chloroquine-resistant Plasmodium falciparum W2 infected in African green monkey (Cercopithecus aethiops) Vero cells assessed as parasite LDH activity after 72 hrs by Malstat reagent method

[3] = system: Vero; experiment: Cytotoxicity against african green monkey Vero cells after 1 to 2 days by neutral red assay; assay type: ADME, cell-based, Chlorocebus sabaeus
[4] = Selectivity index, ratio of IC50 for african green monkey (Cercopithecus aethiops) Vero cells to IC50 for chloroquine-sensitive Plasmodium falciparum D6
[5] = Selectivity index, ratio of IC50 for african green monkey (Cercopithecus aethiops) Vero cells to IC50 for chloroquine-resistant Plasmodium falciparum W2
[6] = system: Plasmodium falciparum; experiment: microbe, parasite or virus in culture; settings: D6, Vero, 72 h
Description: Antimalarial activity against chloroquine-sensitive Plasmodium falciparum D6 infected in African green monkey (Cercopithecus aethiops) Vero cells assessed as parasite LDH activity after 72 hrs by Malstat reagent method

[7] = system: Leishmania donovani
[8] = target: Histone deacetylase; experiment: Inhibition of HDAC in human HeLa cell nuclear extracts after 15 mins by fluorescence assay; assay type: cell-based
[9] = system: Leishmania donovani; experiment: Ratio of suberoylanilide hydroxamic acid IC50 to compound IC50 for Leishmania donovani promastigotes; assay type: functional
[10] = system: Leishmania donovani; experiment: Ratio of suberoylanilide hydroxamic acid IC50 to compound IC50 for Leishmania donovani promastigotes
[11] = Leishmania donovani, 72 h, read-out: IC50
[12] = Chlorocebus sabaeus, Vero, read-out: IC50

Compound | IC90 ([1]; Leishmania donovani, 72 h) [µg/mL] | IC50 [1, 11] [µg/mL] | IC50 [2] [µg/mL] | IC50 ([3]; vero) | selectivity ratio [4] | selectivity ratio [5] | IC50 [6] [µg/mL] | IC50 [3, 12] [µg/mL] | IC50 [1] | IC90 [7] | IC50 [8] [nM] | Ratio [9] | IC50 ratio [10]
O=C(CCCCCn1cc(-c2ccncc2)nn1)NO | > 40 | 17.8 (≈ 64.5 µM) | 0.133 (≈ 0.481 µM) | Non-toxic | > 24.4 | > 35.9 | 0.195 (≈ 0.708 µM) |  |  |  |  |  | 
O=C(CCCCCn1cc(-c2ccccc2-c2ccccc2)nn1)NO | 38 (≈ 108 µM) | 13 (≈ 37.1 µM) | 2.6 (≈ 7.42 µM) |  | 1.3 | 1 | 2.1 (≈ 5.99 µM) | 2.7 (≈ 7.7 µM) |  |  |  |  | 
O=C(CCCCCn1cc(-c2cccnc2)nn1)NO | > 40 | 11.4 (≈ 41.6 µM) | 0.205 (≈ 0.745 µM) | Non-toxic | > 27.2 | > 23.2 | 0.175 (≈ 0.636 µM) |  |  |  |  |  | 
Cc1ccccc1-c1cn(CCCCCC(=O)NO)nn1 | > 40 | 23 (≈ 79.8 µM) | 1.95 (≈ 6.76 µM) |  | 2.6 | 1.7 | 1.25 (≈ 4.33 µM) | 3.3 (≈ 11.4 µM) |  |  |  |  | 
COc1ccccc1-c1cn(CCCCCC(=O)NO)nn1 | > 40 | 18.8 (≈ 61.6 µM) | 0.0975 (≈ 0.32 µM) |  | 15.3 | 23.6 | 0.15 (≈ 0.493 µM) | 2.3 (≈ 7.56 µM) |  |  |  |  | 
O=C(CCCn1cc(-c2ccccc2)nn1)NO |  |  | 3.5 (≈ 14.2 µM) | Non-toxic | > 1.7 | > 1.4 | 2.85 (≈ 11.6 µM) |  | Not Active | inactive |  |  | 
COc1ccc2cc(-c3cn(CCCCCCCC(=O)NO)nn3)ccc2c1 |  |  | 0.165 (≈ 0.431 µM) |  | 5.8 | 3.9 | 0.112 (≈ 0.293 µM) | 0.65 (≈ 1.7 µM) | Not Active | inactive | 226.1 |  | 
O=C(CCCCCn1cc(-c2ccccc2)nn1)NO | > 40 | 17.5 (≈ 63.8 µM) | 0.13 (≈ 0.474 µM) |  | 44.9 | 30.4 | 0.088 (≈ 0.321 µM) | 3.95 (≈ 14.4 µM) |  |  |  |  | 
O=C(CCCCCn1cc(-c2ccccn2)nn1)NO | > 40 | 20.5 (≈ 74.5 µM) | 0.625 (≈ 2.27 µM) |  | 2.9 | 4.6 | 0.985 (≈ 3.58 µM) | 2.9 (≈ 10.5 µM) |  |  |  |  | 
COc1cccc(OC)c1-c1cn(CCCCCC(=O)NO)nn1 | > 40 | 40 (≈ 120 µM) | 2.6 (≈ 7.78 µM) | Non-toxic | > 2.4 | > 1.8 | 2 (≈ 5.98 µM) |  |  |  |  |  | 
O=C(CCCCCCn1cc(-c2cccc(-c3ccccc3)c2)nn1)NO | > 40 | 20.5 (≈ 56.2 µM) | 0.025 (≈ 0.0686 µM) | Non-toxic | > 190 | > 190 | 0.025 (≈ 0.0686 µM) |  |  |  |  |  | 
CC(/C=C/C(=O)NO)=C\[C@@H](C)C(=O)c1ccc(N(C)C)cc1 [TRICHOSTATIN] | 20.5 (≈ 67.8 µM) | 1.37 (≈ 4.53 µM) | 0.0495 (≈ 0.164 µM) |  |  |  | 0.0412 (≈ 0.136 µM) | 0.095 (≈ 0.314 µM) |  |  |  |  | 
O=C(CCCCCCn1cc(-c2cccnc2)nn1)NO | 40 (≈ 138 µM) | 15.5 (≈ 53.6 µM) | 0.081 (≈ 0.28 µM) |  | 50.1 | 46.7 | 0.0755 (≈ 0.261 µM) | 3.78 (≈ 13.1 µM) |  |  | 365.8 |  | 
Cc1ccccc1-c1cn(CCCCCCC(=O)NO)nn1 | 40 (≈ 132 µM) | 26 (≈ 86 µM) | 0.14 (≈ 0.463 µM) |  | 5.9 | 5.1 | 0.12 (≈ 0.397 µM) | 0.71 (≈ 2.35 µM) |  |  | 2.8 |  | 
O=C(CCCCCCCn1cc(-c2ccccc2)nn1)NO | > 40 | 17.8 (≈ 58.7 µM) | 0.695 (≈ 2.3 µM) | Non-toxic | > 7.4 | > 6.8 | 0.645 (≈ 2.13 µM) |  |  |  | 363.6 |  | 
O=C(CCCCCCCn1cc(-c2ccc(-c3ccncc3)cc2)nn1)NO |  |  | 0.128 (≈ 0.336 µM) |  | 43.5 | 30.2 | 0.0885 (≈ 0.233 µM) | 3.85 (≈ 10.1 µM) | Not Active | inactive | 212.9 |  | 
O=C(CCCCCCn1cc(-c2ccccn2)nn1)NO | 40 (≈ 138 µM) | 5.75 (≈ 19.9 µM) | 0.04 (≈ 0.138 µM) |  | 13.8 | 23.8 | 0.069 (≈ 0.238 µM) | 0.95 (≈ 3.28 µM) |  |  |  | 2 | 2
N=C(N)c1ccc(OCCCCCOc2ccc(C(=N)N)cc2)cc1 [PENTAMIDINE] | 1.8 (≈ 5.29 µM) |  |  |  |  |  |  |  |  |  |  |  | 
O=C(CCCCn1cc(-c2ccccc2)nn1)NO |  |  | 0.12 (≈ 0.461 µM) | Non-toxic | > 38.1 | > 39.6 | 0.125 (≈ 0.48 µM) |  | Not Active | inactive |  |  | 

Compound | IC90 ([1]; Leishmania donovani, 72 h) [µg/mL] | IC50 [1, 11] [µg/mL] | IC50 [2] [µg/mL] | IC50 ([3]; vero) | selectivity ratio [4] | selectivity ratio [5] | IC50 [6] [µg/mL] | IC50 [3, 12] [µg/mL] | IC50 [1] | IC90 [7] | IC50 [8] [nM] | Ratio [9] | IC50 ratio [10]
COc1ccc(-c2cn(CCCCCC(=O)NO)nn2)cc1 | > 40 | 18.5 (≈ 60.8 µM) | 0.09 (≈ 0.296 µM) |  | 18.1 | 26.1 | 0.13 (≈ 0.427 µM) | 2.35 (≈ 7.72 µM) |  |  |  |  | 
CN(C)c1ccc(-c2cn(CCCCCCCCC(=O)NO)nn2)cc1 | > 40 | 20.8 (≈ 57.7 µM) | 1.65 (≈ 4.59 µM) | Non-toxic | > 2.6 | > 2.9 | 1.8 (≈ 5.01 µM) |  |  |  | 596.6 |  | 
CN(C)c1ccc(-c2cn(CCCCCC(=O)NO)nn2)cc1 | > 40 | 15.5 (≈ 48.8 µM) | 0.0385 (≈ 0.121 µM) |  | 50 | 88.3 | 0.068 (≈ 0.214 µM) | 3.4 (≈ 10.7 µM) |  |  |  |  | 
O=C(CCCCCn1cc(-c2ccc(-c3ccncc3)cc2)nn1)NO | > 40 | 28 (≈ 79.7 µM) | 0.0475 (≈ 0.135 µM) | Non-toxic | > 105 | > 100 | 0.0455 (≈ 0.129 µM) |  |  |  |  |  | 
CN(C)c1ccc(-c2cn(CCCCCCCC(=O)NO)nn2)cc1 | > 40 | 24 (≈ 69.5 µM) | 0.185 (≈ 0.536 µM) |  | 3.8 | 3.6 | 0.175 (≈ 0.507 µM) | 0.97 (≈ 2.81 µM) |  |  | 15.9 |  | 
O=C(CCCCCCn1cc(-c2ccc(-c3ccncc3)cc2)nn1)NO |  |  | 1.25 (≈ 3.42 µM) | Non-toxic | > 4.1 | > 3.8 | 1.15 (≈ 3.15 µM) |  | Not Active | inactive |  |  | 
O=C(CCCCCCn1cc(-c2ccccc2)nn1)NO | 40 (≈ 139 µM) | 4.55 (≈ 15.8 µM) | 0.0245 (≈ 0.085 µM) |  | 11.3 | 17.6 | 0.038 (≈ 0.132 µM) | 0.43 (≈ 1.49 µM) |  |  |  | 2 | 2
O=C(CCCCCCC(=O)Nc1ccccc1)NO [VORINOSTAT] | 57.9 (≈ 219 µM) |  |  |  |  |  |  |  |  |  |  |  | 
C[C@@H]1CC[C@H]2[C@@H](C)C(=O)O[C@@H]3O[C@@]4(C)CC[C@@H]1[C@]32OO4 [ARTEMISININ] |  |  | 0.006 (≈ 0.0213 µM) |  |  |  | 0.004 (≈ 0.0142 µM) |  |  |  |  |  | 
O=C(CCCCCn1cc(-c2cccc(-c3ccccc3)c2)nn1)NO | 32.5 (≈ 92.7 µM) | 11.2 (≈ 32.1 µM) | 0.026 (≈ 0.0742 µM) | Non-toxic | > 127 | > 183 | 0.0375 (≈ 0.107 µM) |  |  |  |  | 2 | 2
CN(C)c1ccc(-c2cn(CCCCCCC(=O)NO)nn2)cc1 | 36 (≈ 109 µM) | 5.35 (≈ 16.1 µM) | 0.032 (≈ 0.0966 µM) |  | 31.2 | 23.9 | 0.0245 (≈ 0.0739 µM) | 0.765 (≈ 2.31 µM) |  |  |  | 2 | 2
C[C@@H]1[C@H](O)[C@@H](C)/C=C/C=C/C=C/C=C/C=C/C=C/C=C/[C@H](O[C@@H]2O[C@H](C)[C@@H](O)[C@H](N)[C@@H]2O)C[C@@H]2O[C@](O)(C[C@@H](O)C[C@@H](O)[C@H](O)CC[C@@H](O)C[C@@H](O)CC(=O)O[C@H]1C)C[C@H](O)[C@H]2C(=O)O [AMPHOTERICIN B] | 0.31 (≈ 0.335 µM) | 0.14 (≈ 0.152 µM) |  |  |  |  |  |  |  |  |  |  | 
O=C(CCCCCCCn1cc(-c2cccnc2)nn1)NO | > 40 | 19.8 (≈ 65.1 µM) | 1.69 (≈ 5.56 µM) | Non-toxic | > 3.2 | > 2.8 | 1.49 (≈ 4.93 µM) |  |  |  | 425.8 |  | 
Cc1ccc(-c2cn(CCCCCC(=O)NO)nn2)cc1 | > 40 | 21.5 (≈ 74.6 µM) | 0.14 (≈ 0.486 µM) |  | 29.6 | 27.5 | 0.13 (≈ 0.451 µM) | 3.85 (≈ 13.4 µM) |  |  |  |  | 
O=C(CCCCCn1cc(-c2cccs2)nn1)NO | > 40 | 11.5 (≈ 41 µM) | 0.0365 (≈ 0.13 µM) | Non-toxic | > 103 | > 130 | 0.046 (≈ 0.164 µM) |  |  |  |  | 2 | 2
O=C(CCCCCCCCn1cc(-c2cccc(-c3ccccc3)c2)nn1)NO | 40 (≈ 102 µM) | 20 (≈ 51 µM) | 3.2 (≈ 8.15 µM) | Non-toxic | > 1.4 | > 1.5 | 3.35 (≈ 8.53 µM) |  |  |  | 147.7 |  | 
Cc1cccc(-c2cn(CCCCCC(=O)NO)nn2)c1 | > 40 | 17 (≈ 59 µM) | 0.068 (≈ 0.236 µM) |  | 34 | 39.7 | 0.0795 (≈ 0.276 µM) | 2.7 (≈ 9.36 µM) |  |  |  |  | 
O=C(CCCCCCCCn1cc(-c2ccccc2)nn1)NO | > 40 | 18.5 (≈ 58.5 µM) | 2.75 (≈ 8.69 µM) |  | 1.9 | 1.2 | 2.65 (≈ 8.38 µM) | 3.35 (≈ 10.6 µM) |  |  | 55.4 |  | 
O=C(CCCCCCCn1cc(-c2cccc(-c3ccccc3)c2)nn1)NO | 40 (≈ 106 µM) | 20.2 (≈ 53.5 µM) | 0.65 (≈ 1.72 µM) | Non-toxic | > 5.6 | > 7.3 | 0.84 (≈ 2.22 µM) |  |  |  | 108.9 |  | 
